Data published in article PMC10013843 (Molecular psychiatry, 2022).

How the values were obtained:
HCN1 channel [1] = molecular target: T1, HCN1 channel (Homo sapiens, UniProt O60741); test: HCN1 channel functional interaction; format: biochemical
T1 sequence (O60741 1-890): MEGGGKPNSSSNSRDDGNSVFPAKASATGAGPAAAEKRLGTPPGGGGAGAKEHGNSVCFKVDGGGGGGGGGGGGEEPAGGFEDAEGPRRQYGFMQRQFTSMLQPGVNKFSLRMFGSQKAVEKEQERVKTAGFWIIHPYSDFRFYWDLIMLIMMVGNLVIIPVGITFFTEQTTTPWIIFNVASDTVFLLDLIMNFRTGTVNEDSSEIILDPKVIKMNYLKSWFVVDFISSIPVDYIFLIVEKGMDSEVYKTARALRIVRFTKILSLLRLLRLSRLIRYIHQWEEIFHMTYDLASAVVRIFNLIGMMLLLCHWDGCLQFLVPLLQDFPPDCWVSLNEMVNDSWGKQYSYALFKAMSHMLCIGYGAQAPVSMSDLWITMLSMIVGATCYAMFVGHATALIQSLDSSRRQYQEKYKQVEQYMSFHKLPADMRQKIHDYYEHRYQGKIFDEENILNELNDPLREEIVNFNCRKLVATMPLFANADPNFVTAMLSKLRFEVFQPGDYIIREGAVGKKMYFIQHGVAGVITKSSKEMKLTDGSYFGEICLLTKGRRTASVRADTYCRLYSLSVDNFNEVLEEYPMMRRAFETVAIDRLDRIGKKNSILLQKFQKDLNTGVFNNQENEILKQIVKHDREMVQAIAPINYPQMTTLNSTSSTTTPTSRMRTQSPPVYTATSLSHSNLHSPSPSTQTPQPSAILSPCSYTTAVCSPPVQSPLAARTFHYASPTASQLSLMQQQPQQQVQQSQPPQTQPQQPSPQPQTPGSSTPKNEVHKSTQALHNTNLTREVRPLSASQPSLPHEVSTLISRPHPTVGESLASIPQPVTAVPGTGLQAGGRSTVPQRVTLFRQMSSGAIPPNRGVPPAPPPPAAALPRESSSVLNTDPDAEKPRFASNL

sigma-1 receptors = sigma-1 receptors (Rattus norvegicus, UniProt Q9R0C9); settings: cited from earlier work
Chain of sigma-1 receptors (Q9R0C9 whole entry): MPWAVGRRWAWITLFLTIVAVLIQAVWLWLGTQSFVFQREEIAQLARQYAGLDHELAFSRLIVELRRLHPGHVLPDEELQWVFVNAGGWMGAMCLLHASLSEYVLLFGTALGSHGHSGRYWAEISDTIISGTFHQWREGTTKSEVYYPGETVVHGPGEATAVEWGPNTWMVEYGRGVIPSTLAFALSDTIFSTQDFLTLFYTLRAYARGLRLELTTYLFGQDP

HCN1 channel [2] = molecular target: T1, HCN1 channel; settings: cited from earlier work
rats [3] = settings: cited from earlier work
MOR (OPRM1) = MOR (OPRM1) (Homo sapiens, UniProt P35372); settings: cited from earlier work
Chain of MOR (OPRM1) (P35372 whole entry): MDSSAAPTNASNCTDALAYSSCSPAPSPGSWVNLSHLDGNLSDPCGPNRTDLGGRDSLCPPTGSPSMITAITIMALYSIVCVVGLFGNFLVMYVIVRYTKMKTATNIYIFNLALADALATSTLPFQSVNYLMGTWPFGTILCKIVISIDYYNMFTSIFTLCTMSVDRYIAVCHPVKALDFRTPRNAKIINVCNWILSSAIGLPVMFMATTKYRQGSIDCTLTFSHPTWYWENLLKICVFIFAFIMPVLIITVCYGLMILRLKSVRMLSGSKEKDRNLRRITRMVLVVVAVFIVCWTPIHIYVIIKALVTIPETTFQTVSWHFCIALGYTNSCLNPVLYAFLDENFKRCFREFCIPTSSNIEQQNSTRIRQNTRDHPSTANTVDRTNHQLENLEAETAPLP

mu-opioid receptors, MOR = mu-opioid receptors, MOR (Rattus norvegicus, UniProt P33535); settings: cited from earlier work
Chain of mu-opioid receptors, MOR (P33535 whole entry): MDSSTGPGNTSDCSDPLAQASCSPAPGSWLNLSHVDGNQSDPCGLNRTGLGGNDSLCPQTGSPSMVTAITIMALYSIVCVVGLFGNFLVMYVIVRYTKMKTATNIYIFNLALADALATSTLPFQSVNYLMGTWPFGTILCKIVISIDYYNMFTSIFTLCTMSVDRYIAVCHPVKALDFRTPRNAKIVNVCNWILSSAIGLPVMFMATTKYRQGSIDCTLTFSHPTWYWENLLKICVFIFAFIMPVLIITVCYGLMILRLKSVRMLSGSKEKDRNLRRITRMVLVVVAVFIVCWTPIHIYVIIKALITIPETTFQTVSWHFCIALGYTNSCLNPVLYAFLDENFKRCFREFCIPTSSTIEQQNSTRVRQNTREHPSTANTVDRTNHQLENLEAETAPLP

KOR (OPRK1) = KOR (OPRK1) (Homo sapiens, UniProt P41145); settings: cited from earlier work
Chain of KOR (OPRK1) (P41145 whole entry): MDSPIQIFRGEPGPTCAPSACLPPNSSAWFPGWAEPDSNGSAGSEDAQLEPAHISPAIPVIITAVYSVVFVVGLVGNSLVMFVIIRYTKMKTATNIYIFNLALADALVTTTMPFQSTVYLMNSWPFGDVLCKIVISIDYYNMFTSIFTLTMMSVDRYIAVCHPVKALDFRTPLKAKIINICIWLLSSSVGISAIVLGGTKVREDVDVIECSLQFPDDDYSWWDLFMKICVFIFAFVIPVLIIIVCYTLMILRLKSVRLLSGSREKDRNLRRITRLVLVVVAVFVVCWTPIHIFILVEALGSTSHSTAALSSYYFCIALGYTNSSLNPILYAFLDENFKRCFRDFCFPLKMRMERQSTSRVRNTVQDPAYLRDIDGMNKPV

MOR and KOR = settings: cited from earlier work
[4] = molecular target: kappa-opioid receptors, KOR (Rattus norvegicus, UniProt P34975); settings: cited from earlier work
Chain of kappa-opioid receptors, KOR (P34975 whole entry): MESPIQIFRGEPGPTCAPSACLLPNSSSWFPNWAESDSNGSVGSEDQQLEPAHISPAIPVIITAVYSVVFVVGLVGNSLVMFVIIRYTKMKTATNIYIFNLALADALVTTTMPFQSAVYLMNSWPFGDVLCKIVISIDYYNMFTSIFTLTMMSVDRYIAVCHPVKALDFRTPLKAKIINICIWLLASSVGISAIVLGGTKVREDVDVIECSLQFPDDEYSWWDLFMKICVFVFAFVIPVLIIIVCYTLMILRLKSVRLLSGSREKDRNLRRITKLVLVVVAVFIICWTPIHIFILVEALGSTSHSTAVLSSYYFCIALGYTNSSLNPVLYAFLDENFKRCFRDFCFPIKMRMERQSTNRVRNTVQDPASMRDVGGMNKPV

rats [5] = settings: cited from earlier work; remark: listed apart in the source
rats [6] = test: Heroin self-administration and substitution; format: in vivo, rat; settings: 0.5 mg/kg/inf IV

For `CNC1(c2ccccc2Cl)CCCCC1=O` (racemic) [ketamine, (R,S)-ketamine], the “interaction with the HCN1 channel” value (HCN1 channel [1]) is listed as “neither (2R,6R)-HNK nor ketamine interacted”, the “binding to sigma receptors” value (sigma-1 receptors) is listed as “weak binding” and the “effect on HCN1 channels” value (HCN1 channel [2]) is listed as “inhibit”.

For `N[C@@]1(c2ccccc2Cl)CCC[C@@H](O)C1=O` [(2S,6S;2R,6R)-HNK, (2S,6S;2R,6R)-Hydroxynorketamine], the “effect on acute morphine nociception or tolerance” value (rats [3]) is listed as “no effect”.

In the case of `CN[C@@]1(c2ccccc2Cl)CCCCC1=O` [(R)-ketamine], the “MOR signaling, inhibition of cAMP accumulation” value (MOR (OPRM1)) is given as “partial agonists”, the “binding to mu (MOR) opioid receptors” value (mu-opioid receptors, MOR) is given as “bind” and the “KOR signaling, inhibition of cAMP accumulation” value (KOR (OPRK1)) is given as “partial agonists”. The β-arrestin signaling (MOR and KOR) was “do not activate” and the “binding to kappa (KOR) opioid receptors” value [4] was “bind”.

For `CN[C@]1(c2ccccc2Cl)CCCCC1=O` [(S)-ketamine], the self-administration in rats (rats [5]) is listed as “is self-administered”, the “binding to mu (MOR) opioid receptors” value (mu-opioid receptors, MOR) is listed as “bind” and the “pressing on first session after heroin substitution” value (rats [6]) is listed as “increased their pressing”. The “self-administration on successive sessions after heroin substitution” value (rats [6]) was “escalation of self-administration”, the β-arrestin signaling (MOR and KOR) was “do not activate” and the “binding to kappa (KOR) opioid receptors” value [4] was “bind”.
